Results published in patent US10501438B2, “Aryl-substituted dihydroquinolinones, their preparation and their use as pharmaceuticals” (NEOMED Institute, priority 2015, dated 2019).

How the values were obtained:
[1] = target: BRD4(BD1) (Homo sapiens (Human), UniProt O60885); assay: In vitro bromodomain inhibition assay (AlphaLISA); format: binding; details: His-tagged BRD4 BD1 200 nM, biotinylated H4-tetraacetyl peptide 200 nM
Method: a) In Vitro Bromodomain Inhibition Assay
To measure activity of bromodomain inhibitors, a His-epitope tagged BRD4 BD149-170 is purchased from BPS Bioscience. BRD4 binding and inhibition is assessed by monitoring the engagement of biotinylated H4-tetraacetyl peptide (H4K5/8/12/16; AnaSpec #64989-025) with the target using the AlphaLISA technology (Perkin-Elmer). Specifically, in a 384 well OptiPlate, BRD4(BD1) (200 nM final) is pre-incubated with either DMSO (final 1.0% DMSO) or a compound dilution series in DMSO. All reagents are diluted in assay buffer containing 50 mM HEPES (pH 7.4), 100 mM NaCl, 0.1% (w/v) BSA, and 0.05% (w/v) CHAPS. After a 30 min incubation at rt, H4 peptide is added (200 nM final) and the reaction is incubated an additional 30 min at rt. Alpha streptavidin donor beads and AlphaLISA nickel chelate acceptor beads are then added to a final concentration of 10 μg/mL each. After one hour, equilibration plates are read on an Envision instrument and IC50s calculated using a four parameter non-linear curve fit (results are shown in Table 2).

[2] = system: human C-Myc transcription in MV-4-11 cells; assay: Transcription of human C-Myc in human leukemic MV-4-11 cells (QuantiGene 2.0); format: cell-based; details: Homo sapiens, MV4-11, 4 h, inhibition of C-Myc mRNA, 4 hours treatment
How it was run: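 Luminescent QuantiGene 2.0 detection of C-Myc mRNA, using a human C-Myc-specific probe, after lysis of treated cells. Leukemic MV-4-11 cells at 8,000 per well in 10% FBS Iscove's medium received 3-fold dilution series of compound (0.1% DMSO) for 4 hours.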

SMILES	IC50 [1] [nM]	IC50 [2] [nM]
Cc1cc(-c2ccc3c(c2Cc2ccccc2)CCC(=O)N3C)cn(C)c1=O [Compound 9, 5-benzyl-6-(1,5-dimethyl-6-oxo-3-pyridyl)-1-methyl-3,4-dihydroquinolin-2-one]	270	260
Cc1cc(-c2cc3c(c(Cc4ccccc4)c2)N(C)C(=O)CC3)cn(C)c1=O [Compound 2, 8-benzyl-6-(1,5-dimethyl-6-oxo-3-pyridyl)-1-methyl-3,4-dihydroquinolin-2-one]	560	210
Cc1cc(-c2cc3c(c(CNC4CCCC4)c2)NC(=O)CC3)cn(C)c1=O [Compound 19, 8-[(cyclopentylamino)methyl]-6-(1,5-dimethyl-6-oxo-3-pyridyl)-3,4-dihydro-1H-quinolin-2-one]	700	900
Cc1cc(-c2cc3c(c(N(C)c4ccccc4)c2)NC(=O)CC3)cn(C)c1=O [Compound 14, 6-(1,5-dimethyl-6-oxo-3-pyridyl)-8-(N-methylanilino)-3,4-dihydro-1H-quinolin-2-one]	350	190
Cc1cc(-c2ccc3c(c2Cc2ccccc2)CCC(=O)N3)cn(C)c1=O [Compound 7, 5-benzyl-6-(1,5-dimethyl-6-oxo-3-pyridyl)-3,4-dihydro-1H-quinolin-2-one]	140	90
Cc1cc(-c2cc3c(c(CN4CCCCC4)c2)NC(=O)CC3)cn(C)c1=O [Compound 13, 6-(1,5-dimethyl-6-oxo-3-pyridyl)-8-(1-piperidylmethyl)-3,4-dihydro-1H-quinolin-2-one]	1300	1580
